{
  "source": "patent US20250376446A1",
  "about": "“[…] OF A […] CANNABINOID” (Jazz Pharmaceuticals Research UK Limited, priority 2022, published 2025)",
  "key": {"[1]": {"tested_on": "mouse model of generalised seizure (tonic hind limb extensor convulsions)", "test": "Maximal electroshock seizure threshold (MEST) test in the mouse", "settings": "for % change from vehicle (CC50) / CC50 +/- SEM: 30 min post dose", "procedure": "The efficacy of compound 1 was tested in a mouse model of generalised seizure, the maximal electroshock seizure threshold (MEST) test.\nThe maximal electroshock seizure threshold (MEST) test is widely utilized preclinically to evaluate pro-or anti-convulsant properties of test compounds (Loscher et al., 1991).\nIn the MEST test the ability of a drug to alter the seizure threshold current required to induce hind limb tonic extensor convulsions is measured according to an “up and down” method of shock titration (Kimball et al., 1957). An increase in seizure threshold is indicative of anti-convulsant effect.\nThe ability of a test compound to alter the stimulus intensity, expressed as current (mA), required to induce the presence of tonic hind limb extensor convulsions, is assessed in the MEST.\nNaïve mice were acclimatised to the procedure room in their home cages for up to 7 days, with food and water available ad libitum.\nAll animals were weighed at the beginning of the study and randomly assigned to treatment groups based on a mean distribution of body weight across groups.\nThe first animal within a treatment group was given a shock at the expected or estimated CC50 current. For subsequent animals, the current was lowered or raised depending on the convulsions outcome from the preceding animal, in intervals of 5 mA.\nData generated from each treatment group were used to calculate the CC50+SEM values for the treatment group.\nVehicle: (5% ethanol, 10% solutol, 85% Saline) was prepared as follows: 1 mL of ethanol, 2 mL of solutol were warmed to 60° C., in 17 mL of saline (1:2:17).\nThe test compound (compound 1) was administered at 2, 20 and 200 mg/kg (i.p.) in a 1:2:17 ethanol: solutol: 0.9% saline formulation.\nThe data for each treatment group were recorded as the number of +'s and 0's at each current level employed and this information is then used to calculate the CC50 value (current required for 50% of the animals to show seizure behaviour)±standard error.\nTest compound effects were also calculated as percentage change in CC50 from the vehicle control group.\nSignificant difference between drug-treated animals and controls were assessed according to Litchfield and Wilcoxon (1949)."}, "[2]": {"test": "Retest of Form C after storage at ambient conditions", "type": "physicochemical", "settings": "6 days storage at ambient conditions"}, "[3]": {"test": "Stability of Form B to humidity stress (XRPD)", "type": "physicochemical", "settings": "40° C./75% RH for 8 days", "procedure": "Form B material was exposed to high humidity conditions to determine stability on storage. Approximately 20 mg of Form B material was added to a vial and placed unsealed into a sealed cabinet with a relative humidity of 75% (controlled by a super-saturated salt solution) and a temperature of 40° C. for 8 days. The resultant material was analysed by XRPD."}, "[4]": {"test": "Stability of Form B to compression (die press, XRPD)", "type": "physicochemical", "settings": "compression @ 370 MPa for 24 hrs; for Output Form (compression experiment): XRPD", "procedure": "A die press was used to mimic the uniaxial stress experienced during formulation steps such as tableting. Form B (50 mg) was added to a KBr pellet die and compressed overnight at ˜370 MPa using a hydraulic press. The resultant solid disc was removed from the press and immediately analysed by XRPD."}, "[5]": {"test": "Stability of Form B to milling (ball mill, XRPD)", "type": "physicochemical", "settings": "no solvent, mill at 25 Hz, 3 x 2 mins; for Output Form (milling experiment): XRPD", "procedure": "A ball mill was used to mimic the effects of grinding that would be experienced during formulation steps such as dry blending and wet granulation. Form B (50 mg) was added to a milling chamber with an agate milling ball. Using a Retsch MM200 mixer mill, the material was milled for 6-10 minutes at a frequency of 25 Hz. Periodically, the milling was stopped and powder that adhered to the milling chamber was scraped down. The resultant milled material was analysed using XRPD."}},
  "data": [
    {"compound": "C=C(C)[C@@H]1CCC(C)=C[C@H]1c1c(O)cc(-c2cnn(C)c2)cc1O", "note": "[Compound 1, (1′R,2′R)-5′-methyl-4-(1-methyl-1H-pyrazol-4-yl)-2′-(prop-1-en-2-yl)-1′,2′,3′,4′-tetrahydro-[1,1′-biphenyl]-2,6-diol]", "values": [
      {"measurement": "% change from vehicle (CC50)", "setting": "[1]; i.p., 2 mg/kg", "value": 27, "unit": "%"},
      {"measurement": "CC50 +/- SEM", "setting": "[1]; i.p., 2 mg/kg", "value": "30.8 ± 1.0", "unit": "mA"},
      {"measurement": "% change from vehicle (CC50)", "setting": "[1]; i.p., 20 mg/kg", "value": 116, "unit": "%"},
      {"measurement": "CC50 +/- SEM", "setting": "[1]; i.p., 20 mg/kg", "value": "52.5 ± 1.3", "unit": "mA"},
      {"measurement": "% change from vehicle (CC50)", "setting": "[1]; i.p., 200 mg/kg", "value": 712, "unit": "%"},
      {"measurement": "CC50 +/- SEM", "setting": "[1]; i.p., 200 mg/kg", "value": "197.5 ± 20.4", "unit": "mA"},
      {"measurement": "Effect on MEST (in words)", "setting": "[1]; i.p., 2, 20 and 200 mg/kg", "value": "dose-related increase in MEST"},
      {"measurement": "CC50 value compared to vehicle (in words)", "setting": "[1]; i.p., 30 minutes before the test, all three doses (2, 20, 200 mg/kg)", "value": "statistically significant"}
    ]},
    {"compound": "C=C(C)[C@@H]1CCC(C)=C[C@H]1c1c(O)cc(-c2cnn(C)c2)cc1O", "note": "[Form C, (1′R,2′R)-5′-methyl-4-(1-methyl-1H-pyrazol-4-yl)-2′-(prop-1-en-2-yl)-1′,2′,3′,4′-tetrahydro-[1,1′-biphenyl]-2,6-diol]", "values": [
      {"measurement": "Form after storage", "setting": "[2]", "value": "converted to a Form A"}
    ]},
    {"compound": "CN1C(=O)CN=C(c2ccccc2)c2cc(Cl)ccc21", "note": "[Diazepam, diazepam, reference compound]", "values": [
      {"measurement": "% change from vehicle (CC50)", "setting": "[1]; i.p., 2.5 mg/kg", "value": 223, "unit": "%"}
    ]},
    {"compound": "C=C(C)[C@@H]1CCC(C)=C[C@H]1c1c(O)cc(-c2cnn(C)c2)cc1O", "note": "[Form B, (1′R,2′R)-5′-methyl-4-(1-methyl-1H-pyrazol-4-yl)-2′-(prop-1-en-2-yl)-1′,2′,3′,4′-tetrahydro-[1,1′-biphenyl]-2,6-diol]", "values": [
      {"measurement": "Result (humidity stress experiment)", "setting": "[3]", "value": "solid"},
      {"measurement": "Output Form (humidity stress experiment)", "setting": "[3]; XRPD", "value": "stable to storage"},
      {"measurement": "Result (compression experiment)", "setting": "[4]", "value": "solid"},
      {"measurement": "Output Form (compression experiment)", "setting": "[4]", "value": "stable to compression"},
      {"measurement": "Output Form (compression experiment)", "setting": "[4]; listed as B", "value": "B (slight disorder)"},
      {"measurement": "Result (milling experiment)", "setting": "[5]", "value": "solid"},
      {"measurement": "Output Form (milling experiment)", "setting": "[5]", "value": "did not undergo a change in form"},
      {"measurement": "Output Form (milling experiment)", "setting": "[5]; listed as B", "value": "B (disordered)"}
    ]}
  ]
}
